Test results reported in patent publication US20250313533A1, “QUINOLINE CARBOXYLIC ACID ESTER COMPOUND AND PREPARATION METHOD AND USE THEREOF” (priority 2019, published 2025).

Columns and labels:
[1] = tested on: pathogenic bacteria causing bacterial blight in rice; test: whole plant or invertebrate; format: cell-based, xanthomonas; details: read-out: inhibitory rate
[2] = tested on: indoor potted cucumber seedlings; test: Effect of improving growth and development of crops; format: in vivo; parameters: Rate of growth rate increase (%): concentration or dose not given beside the values; details: versus blank control; for Rate of chlorophyll content increase (%) / Rate of leaf area increase (%): 14 days after application; for Rate of growth rate increase (%): plant height 14 days after application; for Rate of leaf area increase (%): second leaf
How it was run: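 SPAD chlorophyll, plant height and second-leaf dimensions measured at application and 14 d later; leaf area from length (base to tip) and width (upper shoulder).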

[3] = tested on: soft rot in Chinese cabbages; test: Field test for controlling soft rot in Chinese cabbages; format: in vivo, Chinese cabbage; details: 7 days after the last application
Method: (§1) In October 2019, tests were carried out in fields of Chinese cabbage, wild cabbage and lettuce in Tai'an, Shandong. The doses of the compounds 152 and 282 of the present disclosure (both prepared as dispersible granules with a mass fraction of 10%) used were 16.87 ga.i./hm^2 and 33.75 ga.i./hm^2, and the control agents used were 3% (by weight) wettable powder of zhongshengmycin and 33.5% (by weight) aqueous suspension of oxine-copper (both were commercially available). The dose of zhongshengmycin was 67.5 ga.i./hm^2, and the dose of oxine-copper was 337.5 ga.i./hm^2. Test and control agents were arranged in randomized blocks. Plot area was 15 m^2. Treatment was repeated 3 times. The route of application was spraying on stem and leaves. The application was performed 2 times in total at an interval of 7 days, and the efficacy investigation was performed 7 days after the last application. During the investigation, sampling was carried out at 5 points in each plot. Disease conditions of soft rot in Chinese cabbages, soft rot in lettuces and soft rot in wild cabbages were recorded according to the relevant technical standard of Pesticide Guidelines for the Field Efficacy Trials GB/T17980.114-2004, and the incidence rate of plants was calculated to further evaluate the control effect.

black shank in potatoes = test: Living crops in vivo protective activity, potatoes (root irrigation); details: Solanum tuberosum, read-out: efficacy against black shank in potatoes; for pest or weed control at 5 ppm: dosage 5 ppm; for pest or weed control at 10 ppm: dosage 10 ppm
Method: Root irrigation was carried out on the potatoes for tests according to the designed concentration of the agents. The dosage for each plant was 200 mL and was kept consistent (also for the control). The black shank bacteria were inoculated on the second day after the application. The results were investigated according to the disease condition.

[4] = tested on: soft rot in Chinese cabbages; test: whole plant or invertebrate; details: 48 h, read-out: efficacy against soft rot in Chinese cabbages
cucumber seedlings = test: Safety for plant growth after application; format: in vivo; details: dosage 200 ppm
How it was run: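 Compound applied to indoor cucumber seedlings in pots. Growth then scored: height increase rate, leaf chlorophyll, leaf area.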

[5] = tested on: soft rot in wild cabbages; test: Field test for controlling soft rot in wild cabbages; format: in vivo, wild cabbage; details: 7 days after the last application
Method: as §1

[6] = tested on: stem rot in sweet potatoes; test: whole plant or invertebrate; details: read-out: efficacy against stem rot in sweet potatoes
[7] = tested on: pathogenic bacteria causing stem rot in sweet potatoes; test: In vitro bactericidal activity, stem rot in sweet potatoes; format: cell-based, dikia; details: read-out: inhibitory rate; for inhibition at 1 ppm: dosage 1 ppm; for inhibition at 5 ppm: dosage 5 ppm
bacterial blight in rice = test: whole plant or invertebrate; details: Oryza sativa, read-out: efficacy against bacterial blight in rice
[8] = tested on: pathogenic bacteria causing bacterial wilt in cassava; test: organism not typed; format: cell-based; details: read-out: inhibitory rate
[9] = tested on: pathogenic bacteria causing black rot in Chinese cabbages; test: In vitro bactericidal activity, black rot in Chinese cabbages; format: cell-based, xanthomonas; details: Xanthomonas, read-out: inhibitory rate; for inhibition at 1 ppm: dosage 1 ppm; for inhibition at 5 ppm: dosage 5 ppm
[10] = tested on: pathogenic bacteria causing black shank in potatoes; test: In vitro bactericidal activity, black shank in potatoes; format: cell-based; details: read-out: inhibitory rate; for inhibition at 1 ppm: dosage 1 ppm; for inhibition at 5 ppm: dosage 5 ppm
[11] = tested on: bacterial wilt in tobacco; test: whole plant or invertebrate; details: Nicotiana tabacum, read-out: efficacy against bacterial wilt in tobacco
[12] = tested on: pathogenic bacteria causing bacterial wilt in tobacco; test: whole plant or invertebrate; format: cell-based, ralstonia; details: read-out: inhibitory rate
[13] = tested on: pathogenic bacteria causing fruit blotch in watermelons; test: In vitro bactericidal activity, fruit blotch in watermelons; format: cell-based, acidovorax; details: read-out: inhibitory rate; for inhibition at 1 ppm: dosage 1 ppm; for inhibition at 5 ppm: dosage 5 ppm
[14] = tested on: fruit blotch in watermelons; test: whole plant or invertebrate; details: read-out: efficacy against fruit blotch in watermelons
[15] = tested on: pathogenic bacteria causing bacterial angular leaf spot in cucumbers; test: In vitro bactericidal activity, bacterial angular leaf spot in cucumbers; format: cell-based, pseudomonas; details: read-out: inhibitory rate; for inhibition at 1 ppm: dosage 1 ppm; for inhibition at 5 ppm: dosage 5 ppm
soft rot in lettuces = test: Field test for controlling soft rot in lettuces; format: in vivo, lettuce; details: 7 days after the last application
Method: as §1

[16] = tested on: pathogenic bacteria causing fire blight in pears; test: In vitro bactericidal activity, fire blight in pears; format: cell-based, erwinia; details: Erwinia, read-out: inhibitory rate; for inhibition at 1 ppm: dosage 1 ppm; for inhibition at 5 ppm: dosage 5 ppm
[17] = dose 16.87 g a.i./hm^2, 2 sprays
[18] = dose 33.75 g a.i./hm^2, 2 sprays

`COCCOC(=O)c1cn(C2CC2)c2cc(Cl)c(F)cc2c1=O` [Compound 152, 2-methoxyethyl 7-chloro-1-cyclopropyl-6-fluoro-4-oxo-1,4-dihydroquinoline-3-carboxylate] was tested, and the inhibition at 1 ppm [1] was ≥ 90%, the inhibition at 5 ppm [1] was ≥ 90% and the “Rate of chlorophyll content increase (%)” value [2] was 17%. The “Rate of growth rate increase (%)” value [2] was 15%, the “Rate of leaf area increase (%)” value [2] was 16% and the “Control effect (%)” value [3, 17] was 86%. For the same compound, the “Control effect (%)” value [3, 18] was 96%, the pest or weed control at 5 ppm (black shank in potatoes) was ≥ 90% and the pest or weed control at 10 ppm (black shank in potatoes) was ≥ 90%. The pest or weed control at 5 ppm [4] was ≥ 90%, the pest or weed control at 10 ppm [4] was ≥ 90% and the “safety for plant growth (discoloration, necrosis, wilt, malformation)” value (shortened to “safety for plant growth”) (cucumber seedlings) was “safe for plant growth”. The “Control effect (%)” value [5, 17] was 82%, the “Control effect (%)” value [5, 18] was 93% and the pest or weed control at 5 ppm [6] was ≥ 90%. For the same compound, the pest or weed control at 10 ppm [6] was ≥ 90%, the inhibition at 1 ppm [7] was ≥ 90% and the inhibition at 5 ppm [7] was ≥ 90%. For the same compound, the pest or weed control at 5 ppm (bacterial blight in rice) was ≥ 90%, the pest or weed control at 10 ppm (bacterial blight in rice) was ≥ 90% and the inhibition at 1 ppm [8] was ≥ 90%. The inhibition at 5 ppm [8] was ≥ 90%, the inhibition at 1 ppm [9] was ≥ 90% and the inhibition at 5 ppm [9] was ≥ 90%. For the same compound, the inhibition at 1 ppm [10] was ≥ 90%, the inhibition at 5 ppm [10] was ≥ 90% and the pest or weed control at 5 ppm [11] was ≥ 90%. The pest or weed control at 10 ppm [11] was ≥ 90%, the inhibition at 1 ppm [12] was ≥ 90% and the inhibition at 5 ppm [12] was ≥ 90%. The inhibition at 1 ppm [13] was ≥ 90%, the inhibition at 5 ppm [13] was ≥ 90% and the pest or weed control at 5 ppm [14] was ≥ 90%. For the same compound, the pest or weed control at 10 ppm [14] was ≥ 90%, the inhibition at 1 ppm [15] was ≥ 90% and the inhibition at 5 ppm [15] was ≥ 90%. The “Control effect (%)” value (soft rot in lettuces; [17]) was 79%, the “Control effect (%)” value (soft rot in lettuces; [18]) was 90% and the inhibition at 1 ppm [16] was ≥ 90%. The inhibition at 5 ppm [16] was ≥ 90%.

With `CCOc1cc2c(cc1F)c(=O)c(C(=O)OCCOC)cn2C1CC1` [Compound 282, 2-methoxyethyl 1-cyclopropyl-6-fluoro-4-oxo-7-ethoxy-1,4-dihydroquinoline-3-carboxylate] the inhibition at 1 ppm [1] was ≥ 90%, the inhibition at 5 ppm [1] was ≥ 90% and the “Rate of chlorophyll content increase (%)” value [2] was 16%. For the same compound, the “Rate of growth rate increase (%)” value [2] was 12%, the “Rate of leaf area increase (%)” value [2] was 16% and the “Control effect (%)” value [3, 17] was 82%. For the same compound, the “Control effect (%)” value [3, 18] was 90%, the pest or weed control at 5 ppm (black shank in potatoes) was ≥ 90% and the pest or weed control at 10 ppm (black shank in potatoes) was ≥ 90%. The pest or weed control at 5 ppm [4] was ≥ 90%, the pest or weed control at 10 ppm [4] was ≥ 90% and the “safety for plant growth” value (cucumber seedlings) was “safe for plant growth”. The “Control effect (%)” value [5, 17] was 80%, the “Control effect (%)” value [5, 18] was 87% and the pest or weed control at 5 ppm [6] was ≥ 90%. For the same compound, the pest or weed control at 10 ppm [6] was ≥ 90%, the inhibition at 1 ppm [7] was ≥ 90% and the inhibition at 5 ppm [7] was ≥ 90%. The pest or weed control at 5 ppm (bacterial blight in rice) was ≥ 90%, the pest or weed control at 10 ppm (bacterial blight in rice) was ≥ 90% and the inhibition at 1 ppm [8] was ≥ 90%. For the same compound, the inhibition at 5 ppm [8] was ≥ 90%, the inhibition at 1 ppm [9] was ≥ 90% and the inhibition at 5 ppm [9] was ≥ 90%. The inhibition at 1 ppm [10] was ≥ 90%, the inhibition at 5 ppm [10] was ≥ 90% and the pest or weed control at 5 ppm [11] was ≥ 90%. For the same compound, the pest or weed control at 10 ppm [11] was ≥ 90%, the inhibition at 1 ppm [12] was ≥ 90% and the inhibition at 5 ppm [12] was ≥ 90%. The inhibition at 1 ppm [13] was ≥ 90%, the inhibition at 5 ppm [13] was ≥ 90% and the pest or weed control at 5 ppm [14] was ≥ 90%. The pest or weed control at 10 ppm [14] was ≥ 90%, the inhibition at 1 ppm [15] was ≥ 90% and the inhibition at 5 ppm [15] was ≥ 90%. The “Control effect (%)” value (soft rot in lettuces; [17]) was 73%, the “Control effect (%)” value (soft rot in lettuces; [18]) was 85% and the inhibition at 1 ppm [16] was ≥ 90%. For the same compound, the inhibition at 5 ppm [16] was ≥ 90%.

In the case of `O=C(OCCO)c1cn(C2CC2)c2cc(N3CCCCC3)c(F)cc2c1=O` [Compound 431], the inhibition at 1 ppm [1] is reported as ≥ 90%, the inhibition at 5 ppm [1] is reported as ≥ 90% and the “Rate of chlorophyll content increase (%)” value [2] is reported as 15%. The “Rate of growth rate increase (%)” value [2] was 12%, the “Rate of leaf area increase (%)” value [2] was 11% and the pest or weed control at 5 ppm (black shank in potatoes) was ≥ 90%. For the same compound, the pest or weed control at 10 ppm (black shank in potatoes) was ≥ 90%, the pest or weed control at 5 ppm [4] was ≥ 90% and the pest or weed control at 10 ppm [4] was ≥ 90%. For the same compound, the “safety for plant growth” value (cucumber seedlings) was “safe for plant growth”, the pest or weed control at 5 ppm [6] was ≥ 90% and the pest or weed control at 10 ppm [6] was ≥ 90%. The inhibition at 1 ppm [7] was ≥ 90%, the inhibition at 5 ppm [7] was ≥ 90% and the pest or weed control at 5 ppm (bacterial blight in rice) was ≥ 90%. For the same compound, the pest or weed control at 10 ppm (bacterial blight in rice) was ≥ 90%, the inhibition at 1 ppm [8] was ≥ 90% and the inhibition at 5 ppm [8] was ≥ 90%. The inhibition at 1 ppm [9] was ≥ 90%, the inhibition at 5 ppm [9] was ≥ 90% and the inhibition at 1 ppm [10] was ≥ 90%. For the same compound, the inhibition at 5 ppm [10] was ≥ 90%, the pest or weed control at 5 ppm [11] was ≥ 90% and the pest or weed control at 10 ppm [11] was ≥ 90%. The inhibition at 1 ppm [12] was ≥ 90%, the inhibition at 5 ppm [12] was ≥ 90% and the inhibition at 1 ppm [13] was ≥ 90%. The inhibition at 5 ppm [13] was ≥ 90%, the pest or weed control at 5 ppm [14] was ≥ 90% and the pest or weed control at 10 ppm [14] was ≥ 90%. For the same compound, the inhibition at 1 ppm [15] was ≥ 90%, the inhibition at 5 ppm [15] was ≥ 90% and the inhibition at 1 ppm [16] was ≥ 90%. For the same compound, the inhibition at 5 ppm [16] was ≥ 90%.

In the case of `COCCOC(=O)c1cn(C2CC2)c2cc(N3CCCCC3)c(F)cc2c1=O` [Compound 432], the inhibition at 1 ppm [1] is reported as ≥ 90%, the inhibition at 5 ppm [1] is reported as ≥ 90% and the “Rate of chlorophyll content increase (%)” value [2] is reported as 16%. For the same compound, the “Rate of growth rate increase (%)” value [2] was 12%, the “Rate of leaf area increase (%)” value [2] was 16% and the pest or weed control at 5 ppm (black shank in potatoes) was ≥ 90%. The pest or weed control at 10 ppm (black shank in potatoes) was ≥ 90%, the pest or weed control at 5 ppm [4] was ≥ 90% and the pest or weed control at 10 ppm [4] was ≥ 90%. For the same compound, the “safety for plant growth” value (cucumber seedlings) was “safe for plant growth”, the pest or weed control at 5 ppm [6] was ≥ 90% and the pest or weed control at 10 ppm [6] was ≥ 90%. For the same compound, the inhibition at 1 ppm [7] was ≥ 90%, the inhibition at 5 ppm [7] was ≥ 90% and the pest or weed control at 5 ppm (bacterial blight in rice) was ≥ 90%. For the same compound, the pest or weed control at 10 ppm (bacterial blight in rice) was ≥ 90%, the inhibition at 1 ppm [8] was ≥ 90% and the inhibition at 5 ppm [8] was ≥ 90%. The inhibition at 1 ppm [9] was ≥ 90%, the inhibition at 5 ppm [9] was ≥ 90% and the inhibition at 1 ppm [10] was ≥ 90%. The inhibition at 5 ppm [10] was ≥ 90%, the pest or weed control at 5 ppm [11] was ≥ 90% and the pest or weed control at 10 ppm [11] was ≥ 90%. The inhibition at 1 ppm [12] was ≥ 90%, the inhibition at 5 ppm [12] was ≥ 90% and the inhibition at 1 ppm [13] was ≥ 90%. The inhibition at 5 ppm [13] was ≥ 90%, the pest or weed control at 5 ppm [14] was ≥ 90% and the pest or weed control at 10 ppm [14] was ≥ 90%. For the same compound, the inhibition at 1 ppm [15] was ≥ 90%, the inhibition at 5 ppm [15] was ≥ 90% and the inhibition at 1 ppm [16] was ≥ 90%. For the same compound, the inhibition at 5 ppm [16] was ≥ 90%.
